In publication PMC4277420, “Assessment of [^125I]WYE-230949 as a Novel Histamine H3 Receptor Radiopharmaceutical” (PLoS ONE, 2014):
Values joined by “and” are separate entries in the source; they are usually repeats but may differ in a detail not shown here. Equal values may be shown once.

Assays:
[1] = biological target: T1, rat histamine H3 receptor (Rattus norvegicus, UniProt Q9QYN8); assay: In vitro saturation radioligand binding to rat brain homogenates
T1 construct: from tissue; host or cells: whole brain of male Sprague-Dawley rats, homogenate pellet
Procedure: Animals (male Sprague-Dawley rats; Harlan, UK) were killed by cervical dislocation. Whole brains were immediately excised and placed into ice-cold Tris-HCl buffer (Tris […], pH 7.4; EDTA 5 mM), homogenised and centrifuged at approx 40,000 g for 10 min at 4°C (Beckman J2-21M/E). The pellet was resuspended in 25 ml of buffer and centrifuged as previously, then the final pellet was resuspended in 10 ml of ice cold Tris buffer and stored at −50°C until required. Protein content was analysed using Bio-Rad reagent; absorbance was read on a spectrophotometer at 562 nm. [^125I]WYE230949 binding assays were carried out in a final incubation volume of 500 µl containing Tris-HCl buffer (Tris […], pH 7.4; EDTA 5 mM), brain homogenates (1.47 to 2.27 mg/ml of protein) and [^125I]WYE230949 (0.04–102 nM). Non-specific binding was defined in the presence of 10 µM iodophenpropit. Samples were incubated at 30°C for 30 min, then filtered rapidly through Whatman GF/B filters (pre-treated with 0.3% polyethylenimine; Aldrich, UK) using a Brandel M24R cell harvester and the filters washed with 3×4 ml ice-cold Tris buffer. Radioactivity on the filters was determined by liquid scintillation counting a minimum of 48 h after filtration. All assays were performed in triplicate. Specific binding was determined by subtracting non-specific binding from total binding at each concentration; Kd and Bmax values derived using GraphPad Prism (version 4.03), and expressed as mean ±SEM of the triplicate assays.

[2] = Ex vivo HPLC analysis of rat plasma and brain samples (% parent compound); type: in vivo
Procedure: (§1) Animal experiments were conducted under the UK Animals (Scientific Procedures) Act 1986. This work was approved by the ethical review committee at the University of Glasgow (PPL: 60/3436) prior to the start of study. Naïve male Sprague-Dawley rats (Harlan, UK), weighing 217 to 352 g were either conscious or anaesthetised (2.5–3% isoflurane via a tracheostomy and artificial ventilation in 70/30% N2O/O2) for the duration of the experiment. Anaesthetised rats had their respiration and temperature monitored throughout. [^125I]WYE-230949 was administered via a femoral vein cannula to anaesthetised rats or via the lateral tail vein to conscious rats. The injected dose for each rat was calculated by measuring the syringe in a dose calibrator before and after [^125I]WYE-230949 administration. The radioactive and radiochemical amounts administered to individual rats ranged from 12.6 to 24.5 MBq and 0.32 to 0.70 µg/kg respectively in all in vivo studies.
After intravenous injection of [^125I]WYE-230949 blood samples were obtained by terminal cardiac puncture from anaesthetised rats or via the lateral tail vein from conscious rats at either 30 or 120 min. Rats were then immediately killed by cervical dislocation and the brain removed. Plasma was separated from whole blood by centrifugation and the protein precipitated by combining 400 µl of plasma with 400 µl of ice-cold acetonitrile. A sample (200 µl) of the supernatant was made up to 1 ml with distilled water and injected onto the HPLC column. The brain was homogenised in 2 ml saline, protein precipitated by addition of 2 ml of ice-cold acetonitrile. Samples were then centrifuged (1300 rpm; 200×g) and the supernatant added to 1 ml acetonitrile before being centrifuged again (1300 rpm; 200×g). The acetonitrile was evaporated under a stream of argon gas and the remaining 1 ml injected onto the HPLC column. Analysis of the brain and plasma metabolite samples was performed using the analytical HPLC methodology described. The % parent compound present was calculated.

[3] = In vivo microSPECT imaging of brain uptake; set-up: species or system rat
Procedure: as §1
MicroSPECT imaging was performed in order to image the uptake of [^125I]WYE-230949 in the brain over time. SPECT scanning was performed using a MollyQ 50 microSPECT scanner (Neurophysics Corp., Shirley, MA, U.S.A.). Rats were anaesthetised for the duration of scan (2–3% isoflurane in 70/30% N2O/O2) and physiological parameters were maintained as described previously. The scanning protocol was designed to ensure that a forebrain slice encompassing structures dense in H3 bindings sites including cortex, striatum, hippocampus and thalamus was captured; the first slice being 14.4 mm caudal to the eyes, approximately at the level of the caudate nucleus. Scanning was commenced 12 min prior to intravenous injection of [^125I]WYE-230949 via the tail vein. Ten sequential coronal slices (400 µm/slice) were collected over a total scanning distance of 4 mm with a scanning time of 12 min per repetition. […] The mean intensity of the ROI in each slice of the SPECT images was measured by plotting a z-axis profile. […] Finally these values were expressed as % of injected dose per ml of tissue and plotted against time.

[4] = Partition and distribution co-efficients (logP and logD), shake-flask method; type: physicochemical
Procedure: The lipophilicity of [^125I]WYE-230949 was determined in octanol/water and at physiological pH using a modification of the shake-flask method. […] The radioactivity incorporated in both phases was determined using a gamma counter (Cobra Gamma Counter, Packard, Perkin Elmer Life and Analytical Sciences, Boston, MA, USA). The assay was performed in triplicate on 3 separate occasions. LogP was calculated to be log [counts in octanol/counts in water] and logD was calculated to be log [counts in octanol/counts in pH 7.4 buffer].

T1 sequence (Q9QYN8 whole entry): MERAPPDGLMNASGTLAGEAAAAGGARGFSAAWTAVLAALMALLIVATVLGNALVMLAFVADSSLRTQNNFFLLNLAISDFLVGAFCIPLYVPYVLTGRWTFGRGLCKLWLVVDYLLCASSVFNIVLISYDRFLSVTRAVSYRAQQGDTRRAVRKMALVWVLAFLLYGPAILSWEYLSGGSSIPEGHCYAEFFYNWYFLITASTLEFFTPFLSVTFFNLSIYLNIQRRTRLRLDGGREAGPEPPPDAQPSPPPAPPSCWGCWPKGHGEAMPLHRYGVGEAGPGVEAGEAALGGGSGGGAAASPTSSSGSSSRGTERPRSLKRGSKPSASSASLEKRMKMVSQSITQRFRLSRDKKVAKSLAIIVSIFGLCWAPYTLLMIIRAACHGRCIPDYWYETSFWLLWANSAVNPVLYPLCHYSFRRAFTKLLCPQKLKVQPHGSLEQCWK

## O=C(c1ccc(Cn2cnc3cccc([125I])c32)cc1)N1CC[C@H](N2CCCC2)C1 [[^125I]WYE-230949]
[1]; at 6.6±0.1 nM, defined with 10 µM iodophenpropit, n = 3
  Non-specific binding as % of total binding: 39±3%
[1]; whole rat brain homogenates, one-site binding model, n = 8
  Bmax: 508.6±34.9 fmol/mg protein and 509 fmol/mg protein
[2]; 30 minutes after injection
  parent compound remaining in plasma: less than 38%
[2]; Brain, 30 min, anaesthetised
  Percentage of parent compound detected: 27±4 (n = 3) %
[2]; Brain, 30 min, conscious
  Percentage of parent compound detected: 46±2 (n = 4) %
[2]; Brain, 120 min, anaesthetised
  Percentage of parent compound detected: 32±5 (n = 3) %
[2]; Brain, 120 min, conscious
  Percentage of parent compound detected: 36±6 (n = 4) %
[2]; Plasma, 30 min, anaesthetised
  Percentage of parent compound detected: 14±2 (n = 4) %
[2]; Plasma, 30 min, conscious
  Percentage of parent compound detected: 38±9 (n = 6) %
[2]; Plasma, 120 min, anaesthetised
  Percentage of parent compound detected: 3±3 (n = 4) %
[2]; Plasma, 120 min, conscious
  Percentage of parent compound detected: 8±5 (n = 4) %
[2]; after 120 min
  parent compound remaining in plasma: less than 8%
[3]; first 12 min following i.v. injection, anaesthetised rats, n = 5
  maximum brain uptake (microSPECT): 0.14±0.01 % ID/ml
[3]; first 12 min post injection, rats
  maximum brain uptake (SPECT), as restated in discussion: 0.14 %ID/g
[3]; microSPECT time activity curve
  half-life in rat brain: 45.4 min
[4]; octanol/phosphate buffer pH 7.4, n = 3
  logD7.4: 1.64±0.04
[4]; octanol/water, n = 3
  logP: 1.59±0.04
